These results are taken from the NIST ThermoML archive (doi:10.1021/je1004643).

The conditions of data set [1]: Liquid; for mass density: 298.15 K, 101.33 kPa; for Normal boiling temperature: Ebulliometric method (Recirculating still).
Data set [2] is described as follows: refractive index (Na D-line) (dimensionless). Particulars: 298.15 K; 101.33 kPa; Liquid; Standard Abbe refractometry.

± gives the expanded uncertainty stated by the source.

Usually mass density stands for the mass of a sample divided by its volume. A word on the refractive index: it is the speed of light in vacuum divided by its phase velocity in the sample.

As to `CCC(C)O` (stereo unspecified) [butan-2-ol], in data set [1], the mass density stood at 802.35 ± 0.79 kg/m3 and the Normal boiling temperature is 99.41 ± 0.3 °C. Moreover, the refractive index in data set [2] came out at 1.3951 ± 0.0005.
Turning to `CCC(C)=O` [butanone], in data set [1], the mass density was 799.62 ± 0.46 kg/m3 and the Normal boiling temperature came out at 79.53 ± 0.3 °C. In addition, in data set [2], the refractive index was determined as 1.3761 ± 0.0005.
